Laboratory results from US20210214354A1, “IMIDAZOQUINOLINE COMPOUNDS AND USES THEREOF” (Birdie Biopharmaceuticals, Inc., priority 2018, published 2021).
Where two headings read alike, the source gives them in different places.

What was measured:
[1] = TLR7/8 agonist PK study in SD rats (i.v.); settings: 0.08 mg/kg, plasma; for MTRinf: SD rats, i.v.; for AUC(0-inf) / AUC(0-t) / C0 / MRT last / Vd / clearance / half-life: both, Sprague-Dawley (SD), rat, iv
Method: (§3) SPF SD rats were purchased from BioLASCO Taiwan Co. Ltd. Animals were randomly assigned to five groups with 3 males and 3 females in each group before dosing. The body weight variation of animals used were in an interval within ±20 percent of the mean weight for each gender.
(§4) Blood samples (200-350 μL/time point) were obtained through tail vein at pre-dose and 2 min, 5 min, 15 min, 30 min, 1 hr, 2 hr, 4 hr, 6 hr, 8 hr, 12 hr and 24 hr post dosing. The blood samples were collected into tubes containing K2EDTA and maintained on ice no more than 30 minutes, then centrifuged (1500-1750 xg, 15 min, 2-8° C.) for plasma harvest.
(§5) The study samples were prepared and analyzed in parallel using liquid chromatography-tandem mass spectrometry. In pharmacokinetics evaluation following the determined concentrations in rat plasma, pharmacokinetic parameters were calculated using WinNonlin (Pharsight Corporation, version 6.3) with non-compartmental methods.

in vivo = settings: both, Sprague-Dawley (SD), rat, iv, 0.08 mg/kg
Method: as §3, §4, §5

[2] = both, Sprague-Dawley (SD), rat, in vivo, iv, 0.08 mg/kg
Method: as §3, §4, §5

hTLR8 = target: T1, hTLR8 (Homo sapiens, UniProt Q9NR97); assay: TLR7/8 agonist potency assay in HEK-Blue hTLR8 cells (SEAP reporter); type: cell-based; settings: about 16 hrs incubation, SEAP at 635 nm, read-out: TLR8 Agonistic EC50 (converted)
T1 construct: expressed in transfected cells; host or cells: HEK-Blue hTLR8 cells (HEK293-derived SEAP reporter line; own knowledge: commercial line stably transfected with the human TLR8 gene)
T1 sequence (Q9NR97 27-1041): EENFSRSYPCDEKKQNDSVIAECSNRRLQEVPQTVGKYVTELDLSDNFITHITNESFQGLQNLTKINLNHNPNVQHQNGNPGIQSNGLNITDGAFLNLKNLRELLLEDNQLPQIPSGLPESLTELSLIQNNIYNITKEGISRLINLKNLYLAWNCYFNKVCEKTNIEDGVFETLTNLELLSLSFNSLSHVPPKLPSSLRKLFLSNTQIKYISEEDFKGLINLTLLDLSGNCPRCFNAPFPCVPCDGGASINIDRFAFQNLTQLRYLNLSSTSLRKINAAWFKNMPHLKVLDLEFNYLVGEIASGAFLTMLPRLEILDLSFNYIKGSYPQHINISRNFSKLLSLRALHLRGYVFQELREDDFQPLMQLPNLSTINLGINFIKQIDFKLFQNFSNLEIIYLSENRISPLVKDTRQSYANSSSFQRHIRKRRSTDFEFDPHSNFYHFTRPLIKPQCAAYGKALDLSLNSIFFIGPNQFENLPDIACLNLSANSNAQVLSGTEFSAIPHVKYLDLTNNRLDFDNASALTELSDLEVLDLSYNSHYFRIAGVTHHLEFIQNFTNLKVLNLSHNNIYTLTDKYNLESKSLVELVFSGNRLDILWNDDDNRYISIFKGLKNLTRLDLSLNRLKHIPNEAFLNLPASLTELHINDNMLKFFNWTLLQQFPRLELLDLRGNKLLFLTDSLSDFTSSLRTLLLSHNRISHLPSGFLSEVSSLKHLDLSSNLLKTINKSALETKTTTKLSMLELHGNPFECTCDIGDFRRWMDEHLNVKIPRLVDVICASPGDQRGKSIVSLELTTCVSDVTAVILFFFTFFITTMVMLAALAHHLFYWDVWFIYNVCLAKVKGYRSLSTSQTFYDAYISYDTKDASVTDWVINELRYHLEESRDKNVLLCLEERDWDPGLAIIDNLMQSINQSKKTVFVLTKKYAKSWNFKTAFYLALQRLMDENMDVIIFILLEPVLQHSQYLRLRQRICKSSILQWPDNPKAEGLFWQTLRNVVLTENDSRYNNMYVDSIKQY
Method: (§1) HEK-Blue hTLR8 cells can serve to measure the bioactivity of TLR8 through the secretion of embryonic alkaline phosphatase (SEAP) upon NF-κB activation following TLR8 stimulation. Water was used as negative control. After about 16 hrs incubation at 37° C. in 5% CO2, the SEAP was determined by using a spectrophotometer at 635 nm.
(§2) The dose-response curves were fit with four parameter logistic curve (SigmaPlot, version 9.0).

hTLR7 = target: T2, hTLR7 (Homo sapiens, UniProt Q9NYK1); assay: TLR7/8 agonist potency assay in HEK-Blue hTLR7 cells (SEAP reporter); type: cell-based; settings: about 16 hrs incubation, SEAP at 635 nm; for EC50: read-out: TLR7 Agonistic EC50 (converted)
T2 construct: expressed in transfected cells; host or cells: HEK-Blue hTLR7 cells (HEK293-derived SEAP reporter line; own knowledge: commercial line stably transfected with the human TLR7 gene)
T2 sequence (Q9NYK1 27-1049): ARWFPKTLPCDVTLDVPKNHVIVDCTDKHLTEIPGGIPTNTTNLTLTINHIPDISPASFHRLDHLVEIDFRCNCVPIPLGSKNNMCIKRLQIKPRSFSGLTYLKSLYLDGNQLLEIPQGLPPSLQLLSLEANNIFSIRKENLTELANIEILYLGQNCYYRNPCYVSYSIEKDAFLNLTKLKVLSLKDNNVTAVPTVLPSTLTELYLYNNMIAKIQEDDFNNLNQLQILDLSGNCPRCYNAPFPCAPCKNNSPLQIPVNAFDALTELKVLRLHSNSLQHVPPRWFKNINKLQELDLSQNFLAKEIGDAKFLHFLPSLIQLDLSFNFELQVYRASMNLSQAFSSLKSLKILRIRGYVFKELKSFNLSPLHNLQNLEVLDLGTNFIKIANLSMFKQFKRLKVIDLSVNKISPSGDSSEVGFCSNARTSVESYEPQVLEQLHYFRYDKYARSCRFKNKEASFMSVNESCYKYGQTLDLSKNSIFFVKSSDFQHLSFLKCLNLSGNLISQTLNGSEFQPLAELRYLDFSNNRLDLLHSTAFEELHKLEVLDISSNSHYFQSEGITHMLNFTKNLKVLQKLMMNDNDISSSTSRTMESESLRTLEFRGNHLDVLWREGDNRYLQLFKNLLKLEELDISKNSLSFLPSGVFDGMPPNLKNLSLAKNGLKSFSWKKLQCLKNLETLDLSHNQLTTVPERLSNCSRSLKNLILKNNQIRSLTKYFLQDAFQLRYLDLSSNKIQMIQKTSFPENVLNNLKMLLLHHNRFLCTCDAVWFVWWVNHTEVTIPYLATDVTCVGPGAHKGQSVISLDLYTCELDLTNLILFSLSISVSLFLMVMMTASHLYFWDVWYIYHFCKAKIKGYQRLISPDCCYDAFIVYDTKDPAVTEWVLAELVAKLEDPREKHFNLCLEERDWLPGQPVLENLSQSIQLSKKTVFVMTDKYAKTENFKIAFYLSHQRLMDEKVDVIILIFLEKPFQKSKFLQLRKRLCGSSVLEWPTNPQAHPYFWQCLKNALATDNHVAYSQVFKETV
Method: as §1, with “TLR7” for “hTLR8”, “TLR7” for “TLR8”, “alkalinephosphatase” for “alkaline phosphatase”
as §2

| Compound | MTRinf [1] | AUC(0-inf) [1] | AUC(0-t) [1] | C0 [1] | MRT last [1] | Vd [1] | clearance [1] | half-life [1] | EC50 (hTLR8) | EC50 (hTLR7) | other results |
| --- | --- | --- | --- | --- | --- | --- | --- | --- | --- | --- | --- |
| CCSCc1nc2c(N)nc3ccccc3c2n1CC(C)(C)O [Compound 4] | 3.87 ± 1.20 h | 66.2 ± 4.81 ng·h/mL | 62.5 ± 4.49 ng·h/mL | 258 ± 47.6 ng/mL | 1.87 ± 0.16 h | 4.67 L/kg | 21.6 mL/min/kg | 8.46 ± 1.72 h | – | – | – |
| CCOCc1nc2c(N)nc3ccccc3c2n1CC(C)(C)O [Resiquimod] | – | – | – | – | – | – | – | – | – | – | AUC(0-inf) (in vivo): 66.2 ± 4.81 ng·h/mL; AUC(0-t) (in vivo): 62.5 ± 4.49 ng·h/mL; C0 (in vivo): 258 ± 47.6 ng/mL; MRT last (in vivo): 1.87 ± 0.16 h; Vd (in vivo): 4.67 L/kg; clearance (in vivo): 21.6 mL/min/kg; half-life (in vivo): 8.46 ± 1.72 h; MTRinf [2]: 3.87 ± 1.20 h |
| CC(C)(O)Cn1c(COC2CC2)nc2c(N)nc3ccccc3c21 [Compound 3] | 4.90 ± 0.87 h | 124 ± 9.96 ng·h/mL | 118 ± 8.92 ng·h/mL | 237 ± 44.2 ng/mL | 3.15 ± 0.18 h | 3.13 L/kg | 11.9 mL/min/kg | 7.53 ± 1.03 h | 1.58 µM | 0.124 µM | – |
| CCS(=O)(=O)Cc1nc2c(N)nc3ccccc3c2n1CC(C)(C)O [Compound 6] | 1.71 ± 0.22 h | 82.8 ± 8.29 ng·h/mL | 81.6 ± 8.49 ng·h/mL | 224 ± 53.9 ng/mL | 1.28 ± 0.19 h | 1.82 L/kg | 17.1 mL/min/kg | 6.46 ± 1.01 h | – | – | – |
| CC(C)(O)Cn1c(COCC(F)(F)F)nc2c(N)nc3ccccc3c21 [Compound 2] | – | – | – | – | – | – | – | – | 1.6 µM | 0.0983 µM | – |
| CCCCNc1nc(N)c2[nH]c(=O)n(Cc3ccc(C(=O)NCC(=O)O)cc3)c2n1 [CL264, reference compound] | – | – | – | – | – | – | – | – | – | – | TLR7 Agonistic EC50 (hTLR7): 0.2602 ± 0.0124 µg/mL |
